For orientation: AUC means the area under the concentration-time curve, a measure of exposure. Lower therefore signals less exposure. In general, Kp refers to the ratio of the level in a tissue or fluid to that in plasma or blood.

Series [1] is described as follows: Drug level in Sprague-Dawley rat brain after 6 hrs. The series is classed as ADME, tissue-based. To be noted: read-out: Drug uptake.
A short description of series [2]: in vivo. To be noted: Sprague-Dawley, rat, plasma.
A short description of series [3]: in vivo. The note with it: Sprague-Dawley, rat, brain/plasma.

In the case of `COc1ccc2c(c1)NC1(CCN(C(=O)c3ccc(OC)c(N(C)C)c3)CC1)c1cccn1-2`, the concentration at 6 h in series [1] amounted to 257 ng/g. The compound also yielded an exposure (AUC) at 6 h in the series “in vivo [2]” of 20.3 µM·h. This compound displayed a concentration ratio (Kp) at 6 h in “in vivo [3]” of 0.2.
Regarding `COc1ccc2c(c1)NC1(CCN(C(=O)c3cccc4ncccc34)CC1)c1cccn1-2`, in “in vivo [2]”, the AUC at 6 h was 16.2 µM·h.

The values above are taken from ChEMBL document CHEMBL3351799, “Bioavailable pyrrolo-benzo-1,4-diazines as Na(v)1.7 sodium channel blockers for the treatment of pain” (Bioorg Med Chem Lett, 2014).
